The values below come from patent US12516049B2, “Sulfonylurea ring substituted monocyclic β-lactam antibiotics” (priority 2019, dated 2026).

Molecules are shown by their SMILES.

Holding throughout (experiment): MIC, two-fold agar dilution, clinical isolate
Format in all cases: cell-based

One assay has as its system E.coli C1569. The conditions noted are these: Escherichia coli, single drug, average of three tests. The gist of the method: (§1)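 Growth inhibition was read by eye after plates had incubated upside down for 16-20 hours at 37° C. Test agents had been serially diluted two-fold in Mueller-Hinton agar adjusted to pH 7.2-7.4, with or without an MBL inhibitor, and spot-inoculated from direct bacterial suspensions. Three replicate tests were averaged.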

The test system of the next assay is K.p BAA-2470. The gist of the method: as §1
In another assay the test system is E.coli CRE23. The settings on record: Escherichia coli; E.coli CRE23; single drug; average of three tests; read-out: MIC. The gist of the method: as §1
The next assay deals with K.p C904. The gist of the method:
as §1

The subject of a further assay is K.p 115004. The procedure, abridged:
as §1

Another assay relates to E.coli 020031. The settings on record: Escherichia coli, single drug, average of three tests. The procedure, abridged:
as §1

A further assay concerns E.coli 115103. The settings on record: Escherichia coli; E.coli 115103; single drug; average of three tests; read-out: MIC. The gist of the method:
as §1

For a further assay, the system named is K.p CRE11. The procedure, abridged:
as §1

For another assay, the system named is E.coli CRE21. The conditions noted are these: Escherichia coli; E.coli CRE21; single drug; average of three tests; read-out: MIC. The procedure, abridged:
as §1

The next assay relates to E.coli 020033. The conditions noted are these: Escherichia coli, single drug, average of three tests. The procedure, abridged:
as §1

For a further assay, the system named is K.p CRE12. The conditions noted are these: single drug, average of three tests. The gist of the method:
as §1

For the next assay, the system named is K.p 6777. The gist of the method: as §1
A further assay concerns E.coli 020028. The settings on record: Escherichia coli, single drug, average of three tests. The procedure, abridged:
as §1

The subject of the next assay is K.p 11544. The settings on record: K.p 11544; single drug; average of three tests; read-out: MIC. The procedure, abridged:
as §1

For another assay, the system named is K.p 090339. The gist of the method: as §1
Another assay has as its system E.coli BAA-2452. The settings on record: Escherichia coli, BAA2452. The procedure, abridged: as §1
The next assay deals with K.p HX37. The settings on record: K.p HX37; single drug; average of three tests; read-out: MIC. The procedure, abridged: as §1
Another assay has as its system K.p 13249. The settings on record: K.p 13249; single drug; average of three tests; read-out: MIC. The procedure, abridged:
as §1

Another assay relates to E.coli CRE28. The settings on record: Escherichia coli; E.coli CRE28; single drug; average of three tests; read-out: MIC. The procedure, abridged: as §1
Another assay has as its system K.p CRE16. The conditions noted are these: single drug, average of three tests. The gist of the method: as §1
In another assay the test system is K.p HX77. The conditions noted are these: single drug, average of three tests. The gist of the method:
as §1

Assay [1] relates to Morganella morganii C1274. The conditions noted are these: Morganella morganii, C1274. The gist of the method:
as §1

Broadly, the MIC is the lowest concentration found to suppress growth. With `NC[C@@H]1CN(C[C@@H]2[C@H](NC(=O)/C(=N\OC3(C(=O)O)CC3)c3csc(N)n3)C(=O)N2S(=O)(=O)O)S(=O)(=O)N1` [Compound 4], the MIC with E.coli C1569 was 1 µg/mL; with K.p BAA-2470, 0.125 µg/mL; with E.coli CRE23, 1 µg/mL; in the assay on K.p C904, 0.125 µg/mL; in the assay with K.p 115004, 0.125 µg/mL; with E.coli 020031, 0.5 µg/mL. The MIC was determined as 1 µg/mL with E.coli 115103; 0.125 µg/mL in the assay with K.p CRE11; 1 µg/mL in the assay on E.coli CRE21; 1 µg/mL with E.coli 020033; 0.06 µg/mL in the assay on K.p CRE12; 0.125 µg/mL in the assay on K.p 6777. For the same compound, the minimum inhibitory concentration (MIC) in the assay on E.coli 020028 turned out to be 0.03 µg/mL; in the assay on K.p 11544 it was 0.06 µg/mL; with K.p 090339 it was 0.125 µg/mL; in the assay with E.coli BAA-2452, 0.125 µg/mL; with K.p HX37, 0.25 µg/mL; in the assay on K.p 13249 it was 0.06 µg/mL. Also, the MIC amounted to 1 µg/mL in the assay on E.coli CRE28, 0.06 µg/mL with K.p CRE16, 0.03 µg/mL in the assay with K.p HX77 and 0.125 µg/mL in assay [1].
